Reference: patent publication US20250339415A1, “DISULFIDE COMPOUNDS AS MEDICAMENTS” (CYTACOAT AB, priority 2021, published 2025)
Where two headings read alike, the source gives them in different places.

How the values were obtained:
Format in all cases: cell-based
[1] = tested on: Enterococcus faecalis #28 (KI, Clinical Isolate); experiment: Minimum inhibitory concentration (MIC), visible growth; settings: for MIC: Enterococcus faecalis
Method: (§1) • 1. Using a sterile inoculating loop, transfer bacteria/Candida albicans from frozen stock culture and streak them on a fresh LA plate. • 2. Incubate the plate at 37° C. overnight (o/n) (18-24 h).
(§2) • 1. Prepare bacterial culture by adding 20 ml Mueller Hinton broth (*) to a 250-ml Erlenmeyer flask with sidearm. • 2. Using a sterile inoculating loop, pick approximately 10 colonies from the o/n bacterial culture and transfer bacteria to the flask. • 3. Incubate the E-flask with bacteria on a rotating shaker at 37° C. until OD590=0.40. This OD should equal an approximate bacterial count of 1×10^8 cfu/ml (**) • This is measured using a colorimeter (or spectrophotometer). Set reference and press R (=reference) first, then measure the bacterial culture by pressing T (=test). • 4. At OD590 0.40, serially dilute the bacterial suspension 1:10 000 in Mueller Hinton broth to obtain a bacterial target concentration of 1×10^4 cfu/ml. Determine the initial inoculation by serially diluting 0.1 ml in 0.9 ml blanks of sterile PBS and plating 0.1 ml aliquots to LA plates, preferably. • 5. Different concentrations of the tested compound are prepared in 0.6-0.8 ml of the final dilution of bacterial suspension and placed in 2-ml test tubes. • 6. Incubate test tubes in an orbital shaker incubator at 37° C. for 24 h.
(§3) • 7. Analyze visible growth, i.e. “Foggy” or “Clear”. MIC is being defined as the interval between the highest “Foggy” and the lowest “Clear” concentration of the compound.
(§4) Different concentrations of PDEA (Example 1) in Mueller Hinton medium were prepared. Bacteria were inoculated to a concentration of 20 000 CFU/ml and incubated at 37° C. for 24 hours. Minimum inhibitory concentrations (MICs) were determined by analyzing visible growth, i.e., readouts were “Clear” and “Foggy”.
(§5) Different concentrations of the quaternary ammonium PDEA (Example 2) in Mueller Hinton medium were prepared. Bacteria were inoculated to a concentration of 20 000 CFU/ml and incubated at 37° C. for 24 hours. Minimum inhibitory concentrations (MICs) were determined by analyzing visible growth, i.e., readouts were “Clear” and “Foggy”.
(§6) Different concentrations of this compound in Mueller Hinton medium were prepared. Bacteria were inoculated to a concentration of 20 000 CFU/ml and incubated at 37° C. for 24 hours. Minimum inhibitory concentrations (MICs) were determined by analyzing visible growth, i.e., readouts were “Clear” and “Foggy”.
(§7) Different concentrations of this compound were prepared in Mueller Hinton broth. Bacteria were inoculated to a concentration of 20 000 CFU/ml and incubated at 37° C. for 24 hours. Minimum inhibitory concentrations (MICs) were determined by analyzing visible growth, i.e., readouts were “Clear” and “Foggy”.

[2] = tested on: Enterococcus faecium #11 (KI, Clinical Isolate); experiment: as above; settings: for MIC: Enterococcus faecium
Method: as §1, §2, §3, §4, §5, §6, §7

Escherichia coli CFT073 = experiment: as above; settings: for MIC: Escherichia coli
Method: as §1, §2, §3, §4, §5, §6, §7

[3] = tested on: Klebsiella pneumoniae AO15200; experiment: as above; settings: for MIC: Klebsiella pneumoniae
Method: as §1, §2, §3, §4, §5, §6, §7

[4] = tested on: Pseudomonas aeruginosa PA02; experiment: as above; settings: for MIC: Pseudomonas aeruginosa
Method: as §1, §2, §3, §4, §5, §6, §7

[5] = tested on: Staphylococcus aureus B5381; experiment: as above
Method: as §1, §2, §3, §4, §5, §6, §7

[6] = tested on: Staphylococcus epidermidis Se19 (Clinical Isolate, Jan Ingemar Falk); experiment: as above; settings: for MIC: Staphylococcus epidermidis
Method: as §1, §2, §3, §4, §5, §6, §7

Candida albicans = experiment: Minimum inhibitory concentration (MIC), visible growth, YPD broth; settings: for MIC: Candida albicans
Method: as §1, §2, §3
(*) When testing Candida albicans, Yeast extract Peptone Dextrose (YPD) broth is being used.
(**) For Candida albicans it is equal to 1×10^7
Different concentrations of PDEA were also prepared in Yeast extract Peptone Dextrose (YPD) broth. Candida albicans were inoculated to a concentration of 20 000 CFU/ml and incubated at 37° C. for 24 hours. Readouts were “Clear” and “Foggy”.
Different concentrations of the quaternary ammonium PDEA (Example 2) were also prepared in Yeast extract Peptone Dextrose (YPD) broth. Candida albicans were inoculated to a concentration of 20 000 CFU/ml and incubated at 37° C. for 24 hours. Readouts were “Clear” and “Foggy”.
Different concentrations of the Para position-PDEA” is (S)-4-pyridylthio cysteamine were also prepared in Yeast extract Peptone Dextrose (YPD) broth. Candida albicans were inoculated to a concentration of 20 000 CFU/ml and incubated at 37° C. for 24 hours. Readouts were “Clear” and “Foggy”.
Different concentrations of “Carboxylic acid PDEA” is 3-(2-Pyridyldithio)propanoic acid (CAS: 68617-64-1) were also prepared in Yeast extract Peptone Dextrose (YPD) broth. Candida albicans were inoculated to a concentration of 20 000 CFU/ml and incubated at 37° C. for 24 hours. Readouts were “Clear” and “Foggy”.

[7] = Mueller Hinton, 20 000 CFU/ml, 37° C., 24 hours, read-out: MIC

O=C(O)CCSSc1ccccn1 [Example 4, 3-(2-Pyridyldithio)propanoic acid]
2000 to 4000 µM: MIC (Escherichia coli CFT073; CFT073, Mueller Hinton, 20 000 CFU/ml, 37° C., 24 hours, read-out: MIC)
100 to 250 µM: MIC [2, 7] | MIC [6, 7]
Foggy: visible growth readout ([1]; 0.05 mM) | visible growth readout ([1]; 0.1 mM) | visible growth readout ([1]; 0.25 mM) | visible growth readout ([2]; 0.05 mM) | visible growth readout ([2]; 0.1 mM) | visible growth readout (Escherichia coli CFT073; 0.05 mM) | visible growth readout (Escherichia coli CFT073; 0.1 mM) | visible growth readout (Escherichia coli CFT073; 0.25 mM) | visible growth readout (Escherichia coli CFT073; 0.5 mM) | visible growth readout (Escherichia coli CFT073; 1 mM) | visible growth readout (Escherichia coli CFT073; 2 mM) | visible growth readout ([3]; 0.05 mM) | visible growth readout ([3]; 0.1 mM) | visible growth readout ([3]; 0.25 mM) | visible growth readout ([3]; 0.5 mM) | visible growth readout ([3]; 0.8 mM (second series)) | visible growth readout ([3]; 1 mM) | visible growth readout ([3]; 2 mM) | visible growth readout ([3]; 3.2 mM (second series)) | visible growth readout ([3]; 4 mM) | visible growth readout ([3]; 0.1.6 mM (second series)) | visible growth readout ([4]; 0.05 mM) | visible growth readout ([4]; 0.1 mM) | visible growth readout ([4]; 0.25 mM) | visible growth readout ([4]; 0.5 mM) | visible growth readout ([4]; 0.8 mM (second series)) | visible growth readout ([4]; 1 mM) | visible growth readout ([4]; 2 mM) | visible growth readout ([4]; 3.2 mM (second series)) | visible growth readout ([4]; 4 mM) | visible growth readout ([4]; 6.4 mM (second series)) | visible growth readout ([4]; 0.1.6 mM (second series)) | visible growth readout ([5]; 0.05 mM) | visible growth readout ([5]; 0.1 mM) | visible growth readout ([5]; 0.25 mM) | visible growth readout ([5]; 0.5 mM) | visible growth readout ([6]; 0.05 mM) | visible growth readout ([6]; 0.1 mM) | visible growth readout (Candida albicans; 0.05 mM) | visible growth readout (Candida albicans; 0.1 mM) | visible growth readout (Candida albicans; 0.25 mM) | visible growth readout (Candida albicans; 0.5 mM) | visible growth readout (Candida albicans; 1 mM)
Clear: visible growth readout ([1]; 0.5 mM) | visible growth readout ([1]; 1 mM) | visible growth readout ([1]; 2 mM) | visible growth readout ([1]; 4 mM) | visible growth readout ([2]; 0.25 mM) | visible growth readout ([2]; 0.5 mM) | visible growth readout ([2]; 1 mM) | visible growth readout ([2]; 2 mM) | visible growth readout ([2]; 4 mM) | visible growth readout (Escherichia coli CFT073; 4 mM) | visible growth readout ([3]; 6.4 mM (second series)) | visible growth readout ([3]; 12.8 mM (second series)) | visible growth readout ([4]; 12.8 mM (second series)) | visible growth readout ([5]; 1 mM) | visible growth readout ([5]; 2 mM) | visible growth readout ([5]; 4 mM) | visible growth readout ([6]; 0.25 mM) | visible growth readout ([6]; 0.5 mM) | visible growth readout ([6]; 1 mM) | visible growth readout ([6]; 2 mM) | visible growth readout ([6]; 4 mM) | visible growth readout (Candida albicans; 2 mM) | visible growth readout (Candida albicans; 4 mM)
250 to 500 µM: MIC [1, 7]
1000 to 2000 µM: MIC (Candida albicans; YPD broth, 20 000 CFU/ml, 37° C., 24 hours, read-out: MIC)
3200 to 6400 µM: MIC ([3]; AO15200, Mueller Hinton, 20 000 CFU/ml, 37° C., 24 hours, read-out: MIC)
6400 to 12800 µM: MIC ([4]; PA02, Mueller Hinton, 20 000 CFU/ml, 37° C., 24 hours, read-out: MIC)

C[N+](C)(C)CCSSc1ccccn1 [Example 2, 2-(2-Pyridyldisulanyl)ethan-(trimethylammonium) chloride]
225 to 550 µM: MIC (Escherichia coli CFT073; CFT073, 24 h) | MIC ([3]; AO15200, 24 h) | MIC (Candida albicans; 24 h)
Clear: visible growth readout ([1]; 0.225 mM) | visible growth readout ([1]; 0.55 mM) | visible growth readout ([1]; 1.125 mM) | visible growth readout ([2]; 0.11 mM) | visible growth readout ([2]; 0.225 mM) | visible growth readout (Escherichia coli CFT073; 0.55 mM) | visible growth readout (Escherichia coli CFT073; 1.125 mM) | visible growth readout ([3]; 0.55 mM) | visible growth readout ([3]; 1.125 mM) | visible growth readout ([4]; 1.125 mM) | visible growth readout ([5]; 1.125 mM) | visible growth readout ([6]; 0.11 mM) | visible growth readout ([6]; 0.225 mM) | visible growth readout (Candida albicans; 0.55 mM) | visible growth readout (Candida albicans; 1.1 mM) | visible growth readout (Candida albicans; 2.2 mM) | visible growth readout (Candida albicans; 4.4 mM)
55 to 110 µM: MIC ([2]; 24 h) | MIC ([6]; 24 h)
550 to 1120 µM: MIC ([4]; PA02, 24 h) | MIC ([5]; Staphylococcus aureus, B5381, 24 h)
110 to 225 µM: MIC ([1]; 24 h)
Foggy: visible growth readout ([1]; 0.11 mM) | visible growth readout ([2]; 0.025 mM) | visible growth readout ([2]; 0.055 mM) | visible growth readout (Escherichia coli CFT073; 0.11 mM) | visible growth readout (Escherichia coli CFT073; 0.225 mM) | visible growth readout ([3]; 0.11 mM) | visible growth readout ([3]; 0.225 mM) | visible growth readout ([4]; 0.11 mM) | visible growth readout ([4]; 0.225 mM) | visible growth readout ([4]; 0.55 mM) | visible growth readout ([5]; 0.11 mM) | visible growth readout ([5]; 0.225 mM) | visible growth readout ([5]; 0.55 mM) | visible growth readout ([6]; 0.025 mM) | visible growth readout ([6]; 0.055 mM) | visible growth readout (Candida albicans; 0.11 mM) | visible growth readout (Candida albicans; 0.225 mM)
